These results are taken from publication PMC6632053, “Incorporation of Putative Helix-Breaking Amino Acids in the Design of Novel Stapled Peptides: Exploring Biophysical and Cellular Permeability Properties” (Molecules, 2019).

The term Kd denotes the equilibrium constant for the complex coming apart. A word on the EC50: it is the concentration needed to bring the measured effect to its halfway point.

Like-named read-outs stand apart in the source and are kept apart here. A value given as a limit tells only on which side of the number the result lay.

For one data set, the target named is T1, human Mdm2 1–125 (Homo sapiens, UniProt Q00987).
T1 construct: GST (N); His6 (internal); TEV cleavage site ENLYFQG (internal); made in house; host or cells: Escherichia coli BL21 (DE3) Rosetta T1R
T1 sequence (Q00987 with tags, fused parts or gaps): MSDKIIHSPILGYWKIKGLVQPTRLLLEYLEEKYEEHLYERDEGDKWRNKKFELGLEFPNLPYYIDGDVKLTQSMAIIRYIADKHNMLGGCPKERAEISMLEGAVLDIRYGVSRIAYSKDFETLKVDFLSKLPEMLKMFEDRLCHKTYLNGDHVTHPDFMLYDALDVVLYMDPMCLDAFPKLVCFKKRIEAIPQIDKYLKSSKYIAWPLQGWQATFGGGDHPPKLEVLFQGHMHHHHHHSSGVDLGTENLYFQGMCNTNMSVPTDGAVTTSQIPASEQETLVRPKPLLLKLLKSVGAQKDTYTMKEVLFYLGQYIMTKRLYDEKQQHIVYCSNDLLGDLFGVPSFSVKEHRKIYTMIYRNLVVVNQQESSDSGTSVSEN
Description: Mdm2 binding assay (competitive fluorescence anisotropy/polarization). The conditions noted are these: Table 1; competitive fluorescence polarization; read-out: Mdm2 (nM), Mdm2 binding (Kd).

Data set [1] has as its system p53 responsive β-lactamase reporter in HCT116 cells. Description: p53 beta-lactamase reporter gene cellular functional assay. In kind it is cell-based. A digest of the protocol:
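HCT116 cells stably carrying a p53-responsive β-lactamase reporter seeded 8000/well overnight, then switched to Opti-MEM with 0% or 10% FBS for compound treatment at 0.5% DMSO final. β-Lactamase activity measured with ToxBLAzer Dual Screen on a multiplate reader.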
Background: In a reporter assay the amount or activity of a reporter protein is the signal.

Data set [2] can be described thus: Lactate dehydrogenase (LDH) release assay. The conditions noted are these: membrane integrity, HCT116. The format is cell-based. How it is done: HCT116 cells were seeded into a 384-well plate at a density of 8000 cells per well. Cells were maintained in McCoy’s 5A Medium with 10% fetal bovine serum (FBS), Blasticidin, and Penicillin/Streptomycin. The cells were incubated overnight, followed by the removal of cell media and the addition of Opti-MEM Medium without FBS. Cells were then treated with peptides for 4 or 16 h in Opti-MEM, either in 10% FBS or in serum free conditions. The final concentration of DMSO was 0.5%. Lactate dehydrogenase release was detected using the CytoTox-ONE Homogenous Membrane Integrity Assay Kit (Promega), as per the manufacturer’s instructions. Measurements were carried out using the Tecan plate reader. Maximum LDH release was defined as the amount of LDH released as induced by the lytic peptide (iDNA79) and used to normalize the results.

In data set [3] the target is T2, recombinant human Mdm2 protein (amino acids 1–125) (Homo sapiens, UniProt Q00987).
T2 construct: purified recombinant human Mdm2 protein (amino acids 1–125); made in house
T2 sequence (Q00987 1-125): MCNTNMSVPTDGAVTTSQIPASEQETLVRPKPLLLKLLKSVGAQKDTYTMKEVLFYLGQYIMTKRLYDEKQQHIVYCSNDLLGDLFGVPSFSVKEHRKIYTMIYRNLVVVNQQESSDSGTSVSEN
The experiment in a line: Isothermal titration calorimetry (ITC). The conditions noted are these: Figure 2A middle panel. The format is binding. How it is done: Overnight dialysis of protein and peptides were carried out in buffer containing 1× phosphate-buffered saline (PBS) pH 7.2, 3% DMSO, and 0.001% Tween-20. […] Reverse ITC (200 µM of Mdm2 protein titrated into 20 µM of peptide) was carried out for peptides that are insoluble at high concentrations. All experiments were performed in duplicates using the MicroCal PEAQ-ITC Automated system. Data analysis was carried out using the MicroCal PEAQ-ITC Analysis Software.
In general terms: ITC needs no label: the signal is the heat of the interaction.

In a further data set the target is T3, biotinylated Mdm2 (Homo sapiens, UniProt Q00987).
T3 construct: made in house
T3 sequence (Q00987 whole entry): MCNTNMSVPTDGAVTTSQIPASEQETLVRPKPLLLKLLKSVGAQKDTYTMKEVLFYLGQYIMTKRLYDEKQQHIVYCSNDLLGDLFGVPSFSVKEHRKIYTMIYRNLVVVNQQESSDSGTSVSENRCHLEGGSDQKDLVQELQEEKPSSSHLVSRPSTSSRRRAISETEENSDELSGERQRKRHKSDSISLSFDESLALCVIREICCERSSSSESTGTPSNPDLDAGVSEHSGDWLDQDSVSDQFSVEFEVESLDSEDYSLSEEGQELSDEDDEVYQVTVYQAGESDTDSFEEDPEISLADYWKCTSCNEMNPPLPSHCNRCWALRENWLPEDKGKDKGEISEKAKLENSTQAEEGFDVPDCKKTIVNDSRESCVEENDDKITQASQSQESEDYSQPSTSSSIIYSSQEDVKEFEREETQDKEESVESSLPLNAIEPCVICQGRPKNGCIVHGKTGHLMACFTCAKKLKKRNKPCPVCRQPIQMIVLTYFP
The experiment in a line: Surface plasmon resonance (SPR). The conditions noted are these: Figure 2A right panel, 25 °C. In kind it is binding. (In general: Surface plasmon resonance follows binding to a sensor surface in real time, without labels.)

A short description of data set [4]: Circular dichroism (CD) α-helicity. The format is physicochemical. The conditions noted are these: Table 1; CD of free peptide, 25 °C, 1 mM Hepes pH 7.4, 5% methanol. In short, it runs like this:
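Peptide dried from methanol, reconstituted to 1 mM in 1 mM Hepes pH 7.4 with 5% methanol; concentration by A280. CD spectra 300–190 nm, 0.2 cm path, 25 °C, duplicates; converted to mean residue ellipticity and deconvoluted for secondary structure.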

A short description of data set [5]: Whole cell homogenate stability. The format is in vitro ADME. The conditions noted are these: 1 μM peptide, 37 °C, up to 22 h. On the procedure: Peptides at a concentration of 1 μM were incubated at 37 °C with HCT116 whole cell homogenates prepared from 1 million lysed cells/mL. The reaction was stopped at 0, 1, 2, 4, and 22 h with an organic solvent followed by centrifugation. The resulting supernatant was injected into LC/MS for detection of the tested peptide. The remaining percentage of each compound was normalized to the 0 h amount and reported. As a positive control, we used the ONEG peptide with the sequence […] [28].

Description for biotinylated Mdm2: SPR experiments were performed with Biacore T100 (GE Healthcare) at 25 °C. […] The SPR buffer consisted of 50 mM Tris pH 7.4, 150 mM NaCl, 1 mM DTT, 0.05% Tween 20, and 3% DMSO. The CM5 chip was first conditioned with 100 mM HCl, followed by 0.1% SDS, 50 mM NaOH, and then water, all performed twice with 6 sec injection at a flow rate of 100 µL/min. With the flow rate set to 10 µL/min, streptavidin (S4762, Sigma-Aldrich) was immobilized on the conditioned chip through amine coupling, as described in the Biacore manual. Excess protein was removed by 30 s injection of the wash solution (50 mM NaOH + 1 M NaCl) at least eight times. The immobilized level was ~3000 RU. The biotinylated Mdm2 was captured by streptavidin, up to a level of ~400 RU. A flow cell consisting of only streptavidin was used as the reference surface. Using a flow rate of 30 µL/min, peptides dissolved in the SPR buffer were injected for 180 s. The dissociation was monitored for 300 s. […] After the run, responses from the target protein surface were transformed by: (i) correcting with the DMSO calibration curve, (ii) subtracting the responses obtained from the reference surface, and (iii) subtracting the responses of the buffer injections from those of peptide injections. The last step is known as double referencing, which corrects the systematic artefacts. […]

For `CC(=O)N[C@@H](CC(C)C)C(=O)N[C@H](C(=O)N[C@@H](Cc1ccccc1)C(=O)N[C@]1(C)CCCCCCC=CCCC[C@@](C)(C(=O)N[C@@H](CO)C(=O)N[C@@H](C)C(=O)N[C@@H](C)C(N)=O)NC(=O)[C@H](CC2CCC2)NC(=O)[C@H](CC(C)C)NC(=O)[C@H](CCC(N)=O)NC(=O)[C@H](Cc2c[nH]c3ccccc23)NC(=O)[C@H](Cc2ccc(O)cc2)NC(=O)[C@H](CCC(=O)O)NC1=O)[C@@H](C)O` [MP-292], the Kd was 18.6 nM at human Mdm2 1–125, less than 20 nM in data set [3] and 1.4 nM at biotinylated Mdm2. The EC50 is 0.5 µM in data set [1] (0% serum, read-out: p53 reporter assay EC50); 0.7 µM in data set [1] (2% serum, read-out: p53 reporter assay EC50); 4.2 µM in data set [1] (10% serum, read-out: p53 reporter assay EC50); 0.54 µM in data set [1] (Table 1, p53 reporter assay, HCT116, read-out: Cellular (µM), cellular activity (EC50)); more than 50000 nM in data set [2]. In data set [4], the “Helicity (%)” value was found to be 32.8%. The “stability in whole cell homogenate” value in data set [5] is “minimal degradation”.
